Earlier results, collected in patent publication US20030157061A1, “Combinations of a cyclooxygenase-2 selective inhibitor and a TNFalpha antagonist and therapeutic uses therefor” (Pharmacia Corporation, priority 2001, published 2003).

System: fibroblast growth factor-induced corneal angiogenesis
Conditions: rats

Question: Which “inhibition of fibroblast growth factor-induced corneal angiogenesis” value does the source give for `Cc1ccc(-c2cc(C(F)(F)F)nn2-c2ccc(S(N)(=O)=O)cc2)cc1` [Celecoxib, 4-[5-(4-methylphenyl)-3-(trifluoromethyl)-1H-pyrazol-1-yl]benzenesulfonamide] here?
Answer: The value was “potent inhibition”.
